Results published in the supplement of paper PMC7017272.
± gives the standard deviation of the averaged measurements.

Columns and labels:
Conditions in all cases: treatment time: 3 days
UT-SCC-44 [1] = assay: drug sensitivity score (DSS); higher = more sensitive; extreme values may be limits of the assay
In short: (§1)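 HPV-negative HNSCC cell lines were plated at 500 cells/well in 384-well plates, either on plastic, on wells coated with Matrigel or Myogel (500 µg/mL), or embedded in Matrigel or Myogel plus rat collagen I. Each compound was tested at five 10-fold concentrations over 3 days. Viability was measured by CellTiter-Glo 2.0 luminescence, and IC50, maximal inhibition and drug sensitivity score came from percent-inhibition dose–response curves fitted in the FIMM pipeline after normalisation to vehicle (0.1% DMSO) and cell-killing control wells.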

UT-SCC-14 = assay: as above
In short: as §1

UT-SCC-24B = assay: as above
In short: as §1

UT-SCC-73 [2] = assay: as above
In short: as §1

UT-SCC-106A [3] = assay: as above
In short: as §1

UT-SCC-28 = assay: as above
In short: as §1

UT-SCC-81 = assay: as above
In short: as §1

UT-SCC-42B [4] = assay: as above
In short: as §1

UT-SCC-42A = assay: as above
In short: as §1

UT-SCC-8 = assay: as above
In short: as §1

UT-SCC-40 [5] = assay: as above
In short: as §1

UT-SCC-24A [6] = assay: maximal % inhibition of viability relative to DMSO; higher = stronger effect
Method: (§2)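 HNSCC cell lines (500 cells/well, 384-well) were cultured on plastic, on top of (2D) or embedded (3D) in Matrigel or human leiomyoma matrix Myogel (500 ug/mL; Myogel 3D mixed with rat collagen I). Cells were treated for 3 days with 5 ten-fold concentrations of each drug, and viability was read by CellTiter-Glo. Viability was normalised to DMSO (0% inhibition) and 100 uM benzethonium chloride (100% inhibition) controls and fitted with the FIMM DSRT pipeline to give IC50 (nM), maximal % inhibition and the drug sensitivity score (DSS). Suffixes _1/_2/_3 on drug names are replicates.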

UT-SCC-24A [7] = assay: relative IC50 (midpoint of the fitted curve; maximal inhibition may be below 50%); higher = less potent
Method: as §2

UT-SCC-24A [8] = assay: drug sensitivity score (DSS); higher = more sensitive
Method: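 HNSCC cell lines (500 cells/well, 384-well) were cultured on plastic, on top of (2D) or embedded (3D) in Matrigel or human leiomyoma matrix Myogel (500 ug/mL; Myogel 3D mixed with rat collagen I). Cells were treated for 3 days with 5 ten-fold concentrations of each drug, and viability was read by CellTiter-Glo. Suffixes _1/_2/_3 on drug names are replicates.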

UT-SCC-44 [9] = assay: relative IC50 (midpoint of the fitted curve; maximal inhibition may be below 50%); higher = less potent
In short: as §1

UT-SCC-73 [10] = assay: as above
In short: as §1

UT-SCC-106A [11] = assay: as above
In short: as §1

UT-SCC-42B [12] = assay: as above
In short: as §1

UT-SCC-40 [13] = assay: as above
In short: as §1

[14] = culture condition: embedded in Matrigel
[15] = culture condition: embedded in Myogel + collagen I
[16] = culture condition: on top of Matrigel
[17] = culture condition: on top of Myogel
[18] = culture condition: plastic 2D (no matrix)

COc1ncc(-c2ccc3nccc(-c4ccnnc4)c3c2)cc1NS(=O)(=O)c1ccc(F)cc1F [Omipalisib]
drug sensitivity score (UT-SCC-44 [1]; [14]): 15.7 ± 2.2 DSS | drug sensitivity score (UT-SCC-44 [1]; [15]): 13.9 ± 1.6 DSS | drug sensitivity score (UT-SCC-44 [1]; [16]): 14 ± 1.9 DSS | drug sensitivity score (UT-SCC-44 [1]; [17]): 14.2 ± 2 DSS | drug sensitivity score (UT-SCC-44 [1]; [18]): 12.4 ± 0.21 DSS | drug sensitivity score (UT-SCC-14; [14]): 25.2 ± 1.2 DSS | drug sensitivity score (UT-SCC-14; [15]): 20.9 ± 3.1 DSS | drug sensitivity score (UT-SCC-14; [16]): 23.8 ± 0.57 DSS | drug sensitivity score (UT-SCC-14; [17]): 20.6 ± 0.78 DSS | drug sensitivity score (UT-SCC-14; [18]): 23.7 ± 2.6 DSS | drug sensitivity score (UT-SCC-24B; [14]): 22.3 ± 0.72 DSS | drug sensitivity score (UT-SCC-24B; [15]): 22.9 ± 1.3 DSS | drug sensitivity score (UT-SCC-24B; [16]): 21.7 ± 0.58 DSS | drug sensitivity score (UT-SCC-24B; [17]): 19.4 ± 0.7 DSS | drug sensitivity score (UT-SCC-24B; [18]): 21.6 ± 0.49 DSS | drug sensitivity score (UT-SCC-73 [2]; [14]): 24.13 ± 0.21 DSS | drug sensitivity score (UT-SCC-73 [2]; [15]): 23.1 ± 3.8 DSS | drug sensitivity score (UT-SCC-73 [2]; [16]): 23.83 ± 0.15 DSS | drug sensitivity score (UT-SCC-73 [2]; [17]): 21.6 ± 0.47 DSS | drug sensitivity score (UT-SCC-73 [2]; [18]): 22.2 ± 0.8 DSS | drug sensitivity score (UT-SCC-106A [3]; [14]): 22.8 ± 0.99 DSS | drug sensitivity score (UT-SCC-106A [3]; [15]): 15.4 ± 0.89 DSS | drug sensitivity score (UT-SCC-106A [3]; [16]): 22.33 ± 0.15 DSS | drug sensitivity score (UT-SCC-106A [3]; [17]): 15 ± 1.2 DSS | drug sensitivity score (UT-SCC-106A [3]; [18]): 21.9 ± 0.46 DSS | drug sensitivity score (UT-SCC-28; [14]): 18.7 ± 3.2 DSS | drug sensitivity score (UT-SCC-28; [15]): 18.7 ± 1.8 DSS | drug sensitivity score (UT-SCC-28; [16]): 18.1 ± 1.6 DSS | drug sensitivity score (UT-SCC-28; [18]): 16.8 ± 0.21 DSS | drug sensitivity score (UT-SCC-81; [14]): 28.53 ± 0.15 DSS | drug sensitivity score (UT-SCC-81; [15]): 21.9 ± 1.9 DSS | drug sensitivity score (UT-SCC-81; [16]): 26.8 ± 0.32 DSS | drug sensitivity score (UT-SCC-81; [17]): 21 ± 0.1 DSS | drug sensitivity score (UT-SCC-81; [18]): 22.6 ± 1.5 DSS | drug sensitivity score (UT-SCC-42B [4]; [14]): 24.7 ± 1.2 DSS | drug sensitivity score (UT-SCC-42B [4]; [16]): 18.3 ± 1.2 DSS | drug sensitivity score (UT-SCC-42B [4]; [17]): 14.1 ± 1.2 DSS | drug sensitivity score (UT-SCC-42B [4]; [18]): 15.2 ± 0.4 DSS | drug sensitivity score (UT-SCC-42A; [14]): 20.8 ± 3.1 DSS | drug sensitivity score (UT-SCC-42A; [15]): 18.2 ± 0.85 DSS | drug sensitivity score (UT-SCC-42A; [16]): 21.1 ± 2.2 DSS | drug sensitivity score (UT-SCC-42A; [17]): 18.6 ± 0.96 DSS | drug sensitivity score (UT-SCC-42A; [18]): 21.6 ± 2.3 DSS | drug sensitivity score (UT-SCC-8; [14]): 27.5 ± 1 DSS | drug sensitivity score (UT-SCC-8; [15]): 24.1 ± 4.4 DSS | drug sensitivity score (UT-SCC-8; [16]): 24.5 ± 0.1 DSS | drug sensitivity score (UT-SCC-8; [17]): 23.7 ± 0.44 DSS | drug sensitivity score (UT-SCC-8; [18]): 25 ± 0.83 DSS | drug sensitivity score (UT-SCC-40 [5]; [14]): 27.3 ± 0.47 DSS | drug sensitivity score (UT-SCC-40 [5]; [15]): 21.5 ± 0.32 DSS | drug sensitivity score (UT-SCC-40 [5]; [16]): 26.4 ± 0.84 DSS | drug sensitivity score (UT-SCC-40 [5]; [17]): 19.2 ± 1.1 DSS | drug sensitivity score (UT-SCC-40 [5]; [18]): 20.6 ± 0.46 DSS | maximal % inhibition of viability (UT-SCC-24A [6]; [14]): 95.2 ± 1.4% | maximal % inhibition of viability (UT-SCC-24A [6]; [15]): 89.2 ± 1.7% | maximal % inhibition of viability (UT-SCC-24A [6]; [16]): 92 ± 1.5% | maximal % inhibition of viability (UT-SCC-24A [6]; [17]): 85.8 ± 0.99% | maximal % inhibition of viability (UT-SCC-24A [6]; [18]): 91.6 ± 0.95% | relative IC50 (UT-SCC-24A [7]; [14]): 4.17 nM | relative IC50 (UT-SCC-24A [7]; [15]): 7 nM | relative IC50 (UT-SCC-24A [7]; [16]): 5.02 nM | relative IC50 (UT-SCC-24A [7]; [17]): 10.1 nM | relative IC50 (UT-SCC-24A [7]; [18]): 5.44 nM | drug sensitivity score (UT-SCC-24A [8]; [14]): 27 ± 2.8 DSS | drug sensitivity score (UT-SCC-24A [8]; [15]): 22.6 ± 1.6 DSS | drug sensitivity score (UT-SCC-24A [8]; [16]): 25.5 ± 1.2 DSS | drug sensitivity score (UT-SCC-24A [8]; [17]): 20.4 ± 1.8 DSS | drug sensitivity score (UT-SCC-24A [8]; [18]): 25 ± 1.6 DSS | relative IC50 (UT-SCC-44 [9]; [15]): 10.4 nM | relative IC50 (UT-SCC-44 [9]; [16]): 5.9 nM | relative IC50 (UT-SCC-44 [9]; [17]): 9.17 nM | relative IC50 (UT-SCC-44 [9]; [18]): 14.4 nM | relative IC50 (UT-SCC-73 [10]; [14]): 6.73 nM | relative IC50 (UT-SCC-73 [10]; [16]): 6.72 nM | relative IC50 (UT-SCC-73 [10]; [17]): 9.27 nM | relative IC50 (UT-SCC-73 [10]; [18]): 8.51 nM | relative IC50 (UT-SCC-106A [11]; [14]): 4.51 nM | relative IC50 (UT-SCC-106A [11]; [15]): 10.1 nM | relative IC50 (UT-SCC-106A [11]; [16]): 5.7 nM | relative IC50 (UT-SCC-106A [11]; [17]): 15.6 nM | relative IC50 (UT-SCC-106A [11]; [18]): 5.69 nM | relative IC50 (UT-SCC-42B [12]; [14]): 6.88 nM | relative IC50 (UT-SCC-42B [12]; [16]): 19.3 nM | relative IC50 (UT-SCC-42B [12]; [17]): 36.6 nM | relative IC50 (UT-SCC-42B [12]; [18]): 31.4 nM | relative IC50 (UT-SCC-40 [13]; [14]): 5.31 nM | relative IC50 (UT-SCC-40 [13]; [15]): 9.86 nM | relative IC50 (UT-SCC-40 [13]; [16]): 5.3 nM | relative IC50 (UT-SCC-40 [13]; [17]): 12.9 nM | relative IC50 (UT-SCC-40 [13]; [18]): 11.7 nM
